“And” between values parts separate entries of the source, which are not always exact repeats. Equal values may be shown once.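 Compound exposure: 48 hours, 5 concentrations, 96-well plates. GI50: concentration for 50% inhibition of growth. The concentration for full growth arrest is given as TGI.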
What was measured:
Assay in all cases: inhibition of tumour cell growth, NCI panel, 48 h
HL-60(TB) leukemia = system: HL-60(TB) leukemia
NCI/ADR-RES ovarian = system: NCI/ADR-RES ovarian
M14 melanoma = system: M14 melanoma
SF-295 CNS = system: SF-295 CNS
SK-OV-3 ovarian = system: SK-OV-3 ovarian
SW-620 colon = system: SW-620 colon
MOLT-4 leukemia = system: MOLT-4 leukemia
RPMI-8226 leukemia = system: RPMI-8226 leukemia
MALME-3M melanoma = system: MALME-3M melanoma
HOP-92 NSCLC = system: HOP-92 NSCLC

Structure (SMILES)	GI50 (HL-60(TB) leukemia)	TGI (HL-60(TB) leukemia)	GI50 (NCI/ADR-RES ovarian)	TGI (NCI/ADR-RES ovarian)	GI50 (M14 melanoma)	TGI (M14 melanoma)	GI50 (SF-295 CNS)	TGI (SF-295 CNS)	GI50 (SK-OV-3 ovarian)	TGI (SK-OV-3 ovarian)	GI50 (SW-620 colon)	TGI (SW-620 colon)	GI50 (MOLT-4 leukemia)	TGI (MOLT-4 leukemia)	GI50 (RPMI-8226 leukemia)	TGI (RPMI-8226 leukemia)	GI50 (MALME-3M melanoma)	TGI (MALME-3M melanoma)	GI50 (HOP-92 NSCLC)	TGI (HOP-92 NSCLC)
CCN1CCN(Cc2ccc(-c3cc4c(N[C@H](C)c5ccccc5)ncnc4[nH]3)cc2)CC1	2.83 µM and 4 µM	7.91 µM and > 10 µM	4.69 µM and 4.78 µM	29.9 µM and > 10 µM	1.84 µM and 1.92 µM	3.77 µM and 4.4 µM	1.62 µM and 3.09 µM	4.2 µM and > 10 µM	0.299 µM	11.1 µM	3.45 µM and 5.46 µM	19.9 µM and > 10 µM	2.62 µM and 2.39 µM	9.35 µM and > 10 µM	3.54 µM and 2.13 µM	13.4 µM and 6.94 µM	1.92 µM and 1.78 µM	4.14 µM and 4.02 µM	0.167 µM and 0.523 µM	4.21 µM and > 10 µM
Clc1ccc(CSC(Cn2ccnc2)c2ccc(Cl)cc2Cl)cc1 (stereo not given)	2.15 µM	4.54 µM	1.46 µM	3.05 µM	1.69 µM	3.12 µM	1.37 µM	2.89 µM	1.7 µM	3.91 µM	1.59 µM	3.1 µM	1.72 µM	4.87 µM	1.38 µM	4.49 µM	1.64 µM	3.15 µM	0.914 µM	2.44 µM
NCCNc1c2c(c(NCCN)c3c(CO)c[nH]c13)C(=O)c1ccccc1C2=O	43.4 µM	> 100 µM	> 100 µM	> 100 µM	25.3 µM	> 100 µM	6.16 µM	43.8 µM	5.96 µM	> 100 µM	8.7 µM	> 100 µM	3.93 µM	> 100 µM	31.3 µM	> 100 µM	8.51 µM	26.3 µM	24 µM	> 100 µM
C=CC[n+]1c(/C=C/C=C2\N(C)c3ccccc3C2(C)C)sc2ccc(OC)cc21	0.156 µM	0.732 µM	7.76 µM	69.2 µM	0.331 µM	2.59 µM	0.18 µM	3 µM	0.21 µM	0.769 µM	0.34 µM	14.3 µM	0.309 µM	5.73 µM	0.0692 µM	0.705 µM	0.188 µM	0.733 µM	0.201 µM	1.61 µM
CCOC(=O)c1ccc2[nH]c(-c3ccc(S(=O)(=O)F)cc3)cc(=O)c2c1		> 100 µM		> 100 µM		> 100 µM		> 100 µM		> 100 µM		> 100 µM		> 100 µM		> 100 µM		90.6 µM		> 100 µM
Cc1ccc([N+](=O)[O-])cc1NC(=O)Nc1cccc(F)c1	4.02 µM	> 100 µM	3.37 µM	> 100 µM	22.1 µM	> 100 µM	2.46 µM	11 µM	13.1 µM	49.4 µM	4.66 µM	> 100 µM	3.38 µM	> 100 µM	2.82 µM	20.7 µM	4.66 µM	51.8 µM	3.46 µM	15.2 µM
COC(=O)[C@@]12C(=O)C=CC(=O)[C@@H]1C1C(=CC2COC(C)=O)O[C@@H]2OC3(CCCCC3)O[C@H]12 (stereo not given in full)		> 25.6 µM		28.7 µM		30.1 µM		29.7 µM		30 µM		12.1 µM		21 µM		22.7 µM		30.2 µM		21.2 µM
C[C@@H]1COCCN1c1cc(C2([S@](C)(=N)=O)CC2)nc(-c2ccnc3[nH]ccc23)n1	1.95 µM and 3.39 µM	12.8 µM and > 10 µM	26.2 µM and > 10 µM	> 100 µM	1.69 µM and 2.38 µM	9.96 µM and > 10 µM	2.6 µM and 3.21 µM	32.9 µM and > 10 µM	2.7 µM and 4.51 µM	27.9 µM and > 10 µM	4.79 µM and > 10 µM	> 100 µM	2.58 µM and 3.39 µM	9.54 µM and > 10 µM	3.96 µM and 6.76 µM	47.5 µM and > 10 µM	8.22 µM and 6.49 µM	45.1 µM and > 10 µM	1.34 µM and 1.14 µM	14 µM and 8.77 µM
Nc1c(C(=O)c2cccc(CCCN3CCOCC3)c2)cnn1-c1ccc(F)cc1	> 25 µM	> 25 µM	> 25 µM	> 25 µM	> 25 µM	> 25 µM	> 25 µM	> 25 µM	> 25 µM	> 25 µM	> 25 µM	> 25 µM	> 25 µM	> 25 µM	> 25 µM	> 25 µM	> 25 µM	> 25 µM	7.01 µM	> 25 µM

— PubChem BioAssay (NCI)
